Earlier results in article PMC8583936, “Machine Learning Assisted Approach for Finding Novel High Activity Agonists of Human Ectopic Olfactory Receptors” (International Journal of Molecular Sciences, 2021).

Molecular target: T1, OR1A1 (Homo sapiens, UniProt Q9P1Q5)
T1 sequence (Q9P1Q5 1-309): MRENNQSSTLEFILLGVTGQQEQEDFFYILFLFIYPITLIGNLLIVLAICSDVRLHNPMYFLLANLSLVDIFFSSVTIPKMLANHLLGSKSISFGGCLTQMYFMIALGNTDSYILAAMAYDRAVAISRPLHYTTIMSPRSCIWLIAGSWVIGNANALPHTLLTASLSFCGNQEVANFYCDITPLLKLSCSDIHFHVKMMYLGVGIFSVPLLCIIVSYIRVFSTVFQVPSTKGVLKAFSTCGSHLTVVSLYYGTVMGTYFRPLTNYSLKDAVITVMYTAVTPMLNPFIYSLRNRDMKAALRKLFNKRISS
Conditions: Table S1; ref Supplement references [1]-[9] as printed after each odorant name; cited from earlier work

Row | Molecule | Class (agonist / non-agonist / conflicting info.) for OR1A1
1 | C=CC(C)(O)CCC=C(C)CCC=C(C)C (mixture of isomers) [Nerolidol] | Agonist
2 | C=C(C)C1CC=C(C)[C@@H](O)C1 (single isomer, unassigned; (-)) [(-)-Carveol] | Agonist
3 | C=C(C)C1CC=C(C)C(OC(C)=O)C1 (single isomer, unassigned; (-)) [(-)Carvyl acetate mix] | Non-agonist
4 | ClC=CCl [1,2-dichlorethylene] | Non-agonist
5 | CC(C)C12CCC(C)(CC1)O2 [1,4-cineole] | Non-agonist
6 | OCCCCCCCCCO [1,9 nonanediol] | Non-agonist
7 | CCc1nccnc1CC [2,3-diethyl pyrazine] | Conflicting info.
8 | Cc1cnc(C)cn1 [2,5 dimethyl pyrazine] | Non-agonist
9 | CCCCCCC(Br)C(=O)O (centres unmarked) [2-bromo octanoic acid] | Non-agonist
10 | CCCC(Br)C(=O)O (centres unmarked) [2-bromovaleric acid] | Non-agonist
11 | CCc1ccccc1O [2-ethylphenol] | Agonist
12 | COc1cnccn1 [2-methoxypyrazine] | Non-agonist
13 | Cc1cnccn1 [2-methylpyrazine] | Non-agonist
14 | CCCCCCCCCCCCCC(C)=O [2-pentadecanone] | Non-agonist
15 | CCCCCC=CCCC=O [4-decenal] | Agonist
16 | CCCCCCCC(=O)CCCCCCC [8-pentadecanone] | Non-agonist
17 | CC1(C)[C@H]2CC=C(C=O)[C@@H]1C2 [(R)-(-)-myrtenal] | Non-agonist
18 | O=C(O)CCCCC(=O)O [Adipic acid] | Non-agonist
19 | COc1ccccc1 [Anisole] | Non-agonist

Row | Molecule | Class (agonist / non-agonist / conflicting info.) for OR1A1
20 | CC(C)(C)c1ccc(CCC=O)cc1 [Bourgeonal] | Conflicting info.
21 | CCC(Br)C(=O)O (centres unmarked) [Bromobutyric acid] | Non-agonist
22 | CCCCS [Butane thiol] | Non-agonist
23 | CC1C(C)(C)C2=C(C(=O)CCC2)C1(C)C (centres unmarked) [Cashmeran] | Non-agonist
24 | CC(=O)c1cc(C(C)(C)C)cc2c1CCC2(C)C [Celestolide] | Agonist
25 | CC(C)=CCCC(C)CC(=O)O (centres unmarked) [Citronellic acid] | Non-agonist
26 | CC1C/C=C/CCCCCCCCC(=O)C1 (centres unmarked) [Cosmone] | Agonist
27 | O=C1CCCCCCCCC1 [Cyclodecanone] | Non-agonist
28 | C1CCCCCCCCCCCCCC1 [Cyclopentadecane] | Non-agonist
29 | OC1CCCCCCCCCCCCCC1 [Cyclopentadecanol] | Non-agonist
30 | O=C1CCCCCCCCCC1 [Cycloundecanone] | Non-agonist
31 | CCCCCCC/C=C/C=C/C=O [E,E-2,4-dodecadienal] | Non-agonist
32 | CC/C=C/CC/C=C/C=O [E,E-26-nonadienal] | Non-agonist
33 | CCCCC/C=C/CCC=O [E-4-decanal] | Agonist
34 | O=C1CCCCCCCCCCCCCCO1 [Exaltolide] | Non-agonist
35 | CC(C)=CCC/C(C)=C/CC/C(C)=C/CO [Farnesol] | Non-agonist
36 | CC1COCc2cc3c(cc21)C(C)(C)C(C)C3(C)C (centres unmarked) [Galaxolide] | Non-agonist
37 | O=C1CCCCCC/C=C\CCCCCCC1 [Globanone] | Non-agonist
38 | O=C1CCCCCCCCC/C=C/CCCO1 [Habanolide] | Non-agonist

Row | Molecule | Class (agonist / non-agonist / conflicting info.) for OR1A1
39 | CCC(=O)OCC(C)(C)OC(C)C1CCCC(C)(C)C1 (centres unmarked) [Helvetolide] | Non-agonist
40 | CCCCCCCC(=O)OCCC(C)C [Isoamyl octanoate] | Non-agonist
41 | CC(C)CS [Isobutyl mercaptan] | Non-agonist
42 | CCCCCCCC(=O)OC [Methyl octanoate] | Non-agonist
43 | CCCC(C)C=O (centres unmarked) [Methyl pentanal] | Non-agonist
44 | C[C@@H]1CCCCCCCCCCCCC(=O)C1 [Muscone] | Conflicting info.
45 | CC(C)=CCC/C(C)=C\CO [Nerol] | Agonist
46 | CC(=O)OC/C=C(/C)CCC=C(C)C [Nerylacetate] | Non-agonist
47 | CCCCCCCCC=O [Nonanal] | Conflicting info.
48 | CCCCCCCC(=O)OCCc1ccccc1 [Phenethyl octanoate] | Non-agonist
49 | c1cnccn1 [Pyrazine] | Conflicting info.
50 | C1CCNC1 [Pyrrolidine] | Non-agonist
51 | O=C(O)CCC(=O)O [Succinic acid] | Non-agonist
52 | C=CC(=C)CC/C=C(\C)CCC=C(C)C [Trans-beta-farnesene] | Non-agonist
53 | CCCCCCCCCCC=O [Undecanal] | Non-agonist
54 | CC/C=C\CCCCCC=O [Z-7-decanal] | Agonist
55 | Ambrettolide | Non-agonist
56 | Farnesene | Non-agonist

Same assay, conditions: cited from earlier work

Row | Molecule | Class (agonist / non-agonist / conflicting info.) for OR1A1
57 | C=CC(O)CCCCC (centres unmarked) [1-octen-3-ol] | Non-agonist
58 | Cc1nccnc1C [2,3-dimethylpyrazine] | Non-agonist
59 | CCCCC(Br)C(=O)O (centres unmarked) [2-bromohexanoic acid] | Non-agonist
60 | CCc1cnccn1 [2-ethylpyrazine] | Non-agonist
61 | COc1ccc(C)cc1 [4-methylanisole] | Non-agonist
62 | CC(C)=CCC[C@@H](C)CCO [(R)-(+)-citronellol] | Agonist
63 | COC(OC)c1ccccc1 [Benzaldehyde dimethyl acetal] | Non-agonist
64 | CC(C)=CCCC(C)=CC#N [Citralva] | Non-agonist
65 | O=C1CCCCCCCCCCCCCC1 [Cyclopentadecanone] | Non-agonist
66 | c1ccc2[nH]ccc2c1 [Indole] | Non-agonist
67 | C/C=C/c1ccc(OC)c(OC)c1 [Methyl isoeugenol] | Agonist
68 | CCC(=O)OC [Methyl propionate] | Non-agonist
69 | CC(=O)c1c(C)c([N+](=O)[O-])c(C(C)(C)C)c([N+](=O)[O-])c1C [Musk ketone] | Non-agonist
70 | CC(C)=CCC/C(C)=C\COC(=O)C(C)C [Neryl isobutyrate] | Non-agonist
71 | Oc1ccccc1 [Phenol] | Non-agonist
72 | CCC(=O)c1ccccc1 [Propiophenone] | Agonist
73 | CC(=O)CCc1ccc(O)cc1 [Raspberry ketone] | Non-agonist
74 | Cc1ccc(C(C)C)c(O)c1 [Thymol] | Conflicting info.
75 | CC(=O)c1cc2c(cc1C)C(C)(C)C(C)CC2(C)C (centres unmarked) [Tonalide] | Non-agonist
76 | O=C(O)/C=C(\CC(=O)O)C(=O)O [Trans-Aconitic acid] | Non-agonist
77 | CN(C)C [Trimethylamine] | Non-agonist
78 | (+)-Menthone | Agonist
79 | (S)-(-)-citronellal | Agonist

Molecular target: T2, OR2W1 (Homo sapiens, UniProt Q9Y3N9)
T2 sequence (Q9Y3N9 1-320): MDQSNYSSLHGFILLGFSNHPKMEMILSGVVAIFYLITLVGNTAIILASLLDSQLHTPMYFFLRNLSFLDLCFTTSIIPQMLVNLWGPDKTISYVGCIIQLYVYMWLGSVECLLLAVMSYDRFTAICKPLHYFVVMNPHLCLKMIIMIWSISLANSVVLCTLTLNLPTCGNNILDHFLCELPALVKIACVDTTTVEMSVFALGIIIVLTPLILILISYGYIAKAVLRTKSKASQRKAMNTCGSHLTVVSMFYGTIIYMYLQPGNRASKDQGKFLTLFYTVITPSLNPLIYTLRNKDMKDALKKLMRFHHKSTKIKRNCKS
Conditions: Table S2; ref Supplement references [2]-[12] as printed after each odorant name; cited from earlier work

Row | Molecule | Class (agonist / non-agonist / antagonist / conflicting info.) for OR2W1
80 | CCCCCC(=O)CC(C)=O [2,4-nonanedione] | Agonist
81 | CCCCC(=O)CC(C)=O [2,4-octanedione] | Agonist
82 | CC(=O)CC(=O)CC(C)C [6-Methyl-2,4-heptanedione] | Agonist

Same assay, conditions: cited from earlier work

Row | Molecule | Class (agonist / non-agonist / antagonist / conflicting info.) for OR2W1
83 | CC(C)=CCC[C@@H](C)CC=O [Citronellal] | Agonist
